Values belong to the molecule of their own block, whether it stands above or below them.
Columns and labels:
Type in all cases: biochemical
[1] = system: antibody 7G12-A10-G1-A12-mesohemin (Fe(III)mesoporphyrin) complex; experiment: Peroxidation of chromogenic peroxidase substrates with H2O2 catalyzed by antibody-mesohemin complex
Method: In further experiments, this antibody was used in the presence of H2 O2 to catalyze the oxidation of the following group of typical chromogenic peroxidase substrates: [drawing 7] Reaction mixtures contained 1 mM reducing substrate, 5 mM hydrogen peroxide, 0.5 mM Fe(III)mesoporphyrin chloride (mesohemin), 0.5% w/v Triton X-100, 4% v/v dimethyl sulfoxide (DMSO), and 90 mM tris acetate, pH 8.0, and were incubated at 10° C. Antibody samples contained 0.2 mg/mL (1.3 μM) protein.
The monitored wavelength and Δε value for each reaction, and the plot in FIG. 2 showing the corresponding absorption curves for each comparison are as follows:
The rate of o-dianisidine oxidation was examined at several o-dianisidine concentrations, ranging from 0.05 mM to 2.5 mM, using 10 mM H2 O2 in each case and other reaction conditions as described above. The initial rate of peroxidation v is shown in FIG. 3 as a function of o-dianisidine concentration for both reactions catalyzed by mesohemin alone (open squares) and reactions catalyzed by the antibody-mesohemin complex (filled squares).
Saturation kinetics for the o-dianisidine peroxidation reaction were determined at an o-dianisidine concentration of 0.6 mM, with the remaining reaction conditions as described above. Lineweaver-Burk plots are shown in FIG. 4 for both free mesohemin (open squares) and antibody-mesohemin complex (filled squares) as a function of H2 O2 concentrations. The rates shown are based on an estimated molar extinction coefficient (ε) of 7500 for oxidized o-dianisidine.

[2] = system: antibody (elicited against pyridoxal/p-nitrophenylalanine Schiff base analog hapten) which enhanced the bimolecular condensation reaction; experiment: Inhibition by hapten of the transamination between p-nitrophenylpyruvic acid and pyridoxamine; details: 100 μM of the hapten
Method: (§1) A hapten was formed by first reacting pyridoxal with p-nitrophenylalanine in the presence of aqueous NaBH4 at pH 8.5 to form a stable Schiff base analog. The latter was then treated with thiourea in 48% HBr followed by aqueous ammonium hydroxide to form the disulfide dimer, which was then reduced and subjected to disulfide exchange with a carrier protein to yield a hapten-protein conjugate in which the hapten was the Schiff base analog.
(§2) Antibodies were elicited against the conjugate in accordance with conventional procedures, and seven antibodies specifically binding to the hapten itself were selected. Inhibition tests were conducted in which p-nitrophenylalanine and pyridoxamine individually were contacted with the antibodies to determine whether or not binding between the antibodies and the hapten-protein conjugate was inhibited in an ELISA assay.
(§3) The same seven antibodies were then used in the transamination reaction between p-nitrophenylpyruvic acid and pyridoxamine to form p-nitrophenylalanine. Reactions were performed in two separate buffer solutions, using 1 mM each of p-nitrophenylpyruvic acid and pyridoxamine, 10 μM antibody (IgG) and 250 μM m-nitrobenzylalcohol as an internal standard in each case. The first buffer solution consisted of 10 mM phosphate and 150 mM NaCl at pH 7.5, and the second consisted of 100 mM imidazole and 100 mM NaCl at pH 7.0.

[3] = system: antibody (elicited against pyridoxal/p-nitrophenylalanine Schiff base analog hapten) which resulted in the highest rate of amino acid production in the …; experiment: as above; details: 100 μM of the hapten
Method: as §1, §2, §3

[4] = system: antibody 7G12-A10-G1-A12 plus 1 μM Fe(III)-mesoporphyrin; experiment: Oxidation of pyrogallol, absorption at 420 nm monitored over time (FIG. 1); details: 5 μM NMMP
Method: In one experiment, the antibody was used for oxidation of pyrogallol as determined spectrometrically by monitoring […]. The reaction was as follows: [drawing 6] The product has a maximum absorption at 420 nm.
(a) 1 μM Fe(III)-mesoporphyrin only;
(c) the antibody plus 1 μM Fe(III)-mesoporphyrin and 5 μM NMMP; and
(d) the antibody plus 1 μM Fe(III)-mesoporphyrin only.

[5] = system: monoclonal antibody 7G12-A10-G1-A12 elicited against N-methyl mesoporphyrin (NMMP); experiment: Inhibition of antibody-catalyzed chelation of metal ions by mesoporphyrin IX; details: inhibition of the antibody's catalytic ability (metal chelation by mesoporphyrin IX); read-out: inhibition constant (Ki)
Source text: N-Methyl mesoporphyrin (NMMP), a commercially available species obtained from Porphyrin Products, Logan, Utah, having the formula [drawing 3] was conjugated to a carrier protein by treatment of the NMMP with N-hydroxysuccinimide (NHS) and dicyclohexylcarbodiimide, followed by addition of the resulting NHS ester to a solution of the protein. Monoclonal antibodies were elicited in accordance with conventional procedures known to those skilled in the art, and purified by Protein A affinity chromatography.
The inhibition constant (Ki) for the iron(III)mesoporphyrin was less than 10 nM. The term "mesoporphyrin" is used here as an abbreviation for the more complete term "mesoporphyrin IX," and the abbreviations "MP" and "MPIX" are used interchangeably to refer to this species. Thus, "Fe(III)-mesoporphyrin," "iron(III)mesoporphyrin" and "Fe(III)MPIX" are equivalent, and "N-methyl nesoporphyrin," "NMMP" and "N-MeMPIX" and likewise equivalent.

[6] = peroxidation of the named reducing substrate by the antibody-mesohemin complex

Kcat /Km [1, 6]: 233 M⁻¹ s⁻¹
Molecule: CCn1c(=NN=c2sc3cc(S(=O)(=O)O)ccc3n2CC)sc2cc(S(=O)(=O)O)ccc21 [2,2'-azinobis(3-ethylbenzothiazoline-6-sulfonic acid)]

Km ([1]; o-dianisidine peroxidation, 0.6 mM o-dianisidine, H2O2 concentration varied (Lineweaver-Burk, FIG. 4), pH 8.0, 10° C.): 24 mM
Kcat /Km ([1]; o-dianisidine peroxidation, 0.6 mM o-dianisidine, H2O2 concentration varied, pH 8.0, 10° C.): 274 m^-1 s^-1
kcat ([1]; o-dianisidine peroxidation, 0.6 mM o-dianisidine, H2O2 concentration varied, pH 8.0, 10° C., ε estimated 7500): 6.57 s⁻¹
Molecule: OO [H2 O2, hydrogen peroxide]

effect of hapten on antibody catalysis of peroxidation ([1]; hapten in a stoichiometric amount relative to antibody binding sites, each of the four reactions): completely blocked antibody catalysis
Molecule: N-Methyl mesoporphyrin [NMMP]
effect of NMMP on the pyrogallol oxidation rate [4]: destroying the catalytic effect

Further lines, the molecule ahead of its results:

Molecule: Cc1ncc(CO)c(CNC(Cc2ccc([N+](=O)[O-])cc2)C(=O)O)c1O (stereo not shown) [Schiff base analog]
inhibition of transamination [2]: noticeably inhibited
inhibition of transamination [3]: noticeably inhibited

Molecule: Oc1cccc(O)c1O [pyrogallol]
Kcat /Km [1, 6]: 122 M⁻¹ s⁻¹

Molecule: iron(III)mesoporphyrin
Ki [5]: < 10 nM

Source: patent publication US5219732A, “Antibody-mediated cofactor-driven reactions” (priority 1990, dated 1993)
